Columns and labels:
Vibrio fischeri [1] = test: Quantification of gene expression during luminescence; assay type: cell-based
[2] = NMR diffusion experiments, binding affinity of cyclodextrin for N-octanoyl-homoserine lactone; settings: based on dissociation constants calculated from the diffusion data
Method: To confirm that cyclodextrin was the active quenching agent in the model system, NMR diffusion experiments were performed.

Vibrio fischeri [3] = test: Growth studies: luminescence of Vibrio fischeri in vitro; assay type: cell-based

Structure (SMILES): OC[C@H]1O[C@@H]2O[C@H]3[C@H](O)[C@@H](O)[C@@H](O[C@H]4[C@H](O)[C@@H](O)[C@@H](O[C@H]5[C@H](O)[C@@H](O)[C@@H](O[C@H]6[C@H](O)[C@@H](O)[C@@H](O[C@H]7[C@H](O)[C@@H](O)[C@@H](O[C@H]8[C@H](O)[C@@H](O)[C@@H](O[C@H]1[C@H](O)[C@H]2O)O[C@@H]8CO)O[C@@H]7CO)O[C@@H]6CO)O[C@@H]5CO)O[C@@H]4CO)O[C@@H]3CO [cyclodextrin, β-Cyclodextrin]
- production of autoinducers and luciferase (gene expression) (Vibrio fischeri [1]): decrease in the production of autoinducers and luciferase
- binding of N-octanoyl-homoserine lactone (complex formation) [2]: able to bind cyclodextrin and form a complex
- luminescence (Vibrio fischeri [3]): reduce luminescence

— patent US10717788B2, “Cyclodextrin functionalized nanoparticles for quenching bacterial communications” (University of South Carolina, priority 2014, dated 2020)
